From article PMC2682573, “A Novel Two Mode-Acting Inhibitor of ABCG2-Mediated Multidrug Transport and Resistance in Cancer Chemotherapy” (PLoS ONE, 2009) come the findings set out here.

In data set [1] the target is T1, ABCG2 (Homo sapiens, UniProt Q9UNQ0).
T1 sequence (Q9UNQ0 1-655): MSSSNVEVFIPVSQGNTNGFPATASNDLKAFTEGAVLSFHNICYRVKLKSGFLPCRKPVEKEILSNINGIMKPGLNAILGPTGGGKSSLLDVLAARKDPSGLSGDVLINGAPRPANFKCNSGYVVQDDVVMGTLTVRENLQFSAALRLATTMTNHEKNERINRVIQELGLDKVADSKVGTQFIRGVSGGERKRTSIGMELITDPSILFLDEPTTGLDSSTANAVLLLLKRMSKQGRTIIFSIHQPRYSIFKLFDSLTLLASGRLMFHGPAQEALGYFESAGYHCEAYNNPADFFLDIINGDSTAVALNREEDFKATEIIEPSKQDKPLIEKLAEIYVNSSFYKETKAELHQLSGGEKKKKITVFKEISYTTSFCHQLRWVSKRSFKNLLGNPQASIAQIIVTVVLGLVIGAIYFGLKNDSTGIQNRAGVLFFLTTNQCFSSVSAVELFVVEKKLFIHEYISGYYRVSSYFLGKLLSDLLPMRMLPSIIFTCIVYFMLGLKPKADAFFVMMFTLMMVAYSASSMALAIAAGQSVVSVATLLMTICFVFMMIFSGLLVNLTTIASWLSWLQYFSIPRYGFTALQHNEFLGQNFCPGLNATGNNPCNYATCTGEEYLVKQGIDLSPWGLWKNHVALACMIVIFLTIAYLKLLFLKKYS
Put plainly: mitoxantrone accumulation ([…]) and 5D3 conformational staining ([…]) in HEK293/ABCG2 cells. The data set is classed as cell-based.

The target of data set [2] is T1, ABCG2. Briefly: reference inhibitor; mitoxantrone accumulation, 5D3 conformational staining and sensitization IC50 in HEK293/ABCG2 cells. The data set is classed as cell-based.
In data set [3] the target is T1, ABCG2. Particulars: hek293/abcg2 inside-out membrane vesicles.

What is called Km is the concentration of substrate that gives half-maximal velocity.

SMILES strings stand for the structures.

As for `CC(=O)CSc1nc2ccc(Nc3nc(N4CCOCC4)nc(N4CCOCC4)n3)cc2s1` [C8], the “mitoxantrone accumulation (3 μM) and 5D3 conformational staining (10 μM) in HEK2” value (“mitoxantrone accumulation” below) in data set [1] is on record as “All three analogues had similar activity as PZ-39 in enhancing mitoxantrone accumulation”.

As for `O=C(CSc1nc2ccc(Nc3nc(Nc4ccccc4)nc(Nc4ccccc4)n3)cc2s1)N1CCCC1` [E2], the “mitoxantrone accumulation” value in data set [1] is reported as “All three analogues had similar activity as PZ-39 in enhancing mitoxantrone accumulation”.

As for `CC(C)(C)NC(=O)CSc1nc2ccc(Nc3nc(N4CCOCC4)nc(N4CCOCC4)n3)cc2s1` [C6], in data set [1], the “mitoxantrone accumulation” value is “All three analogues had similar activity as PZ-39 in enhancing mitoxantrone accumulation”.

Turning to `COc1ccc2c3c([nH]c2c1)[C@H](C=C(C)C)N1C(=O)[C@@H]2CCCN2C(=O)[C@@H]1C3` [FTC, Fumitremorgin C], the “IC50 (μM) / Inhibitor+MX ^a” value in data set [2] was 0.387 ± 0.054 µM.

Consider `O=C1c2c(O)ccc(O)c2C(=O)c2c(NCCNCCO)ccc(NCCNCCO)c21` [mitoxantrone], for which the Km in data set [3] was determined as 2300 nM.
